These are literature values, as cited in patent publication US12090156B2, “Application of CB-839 in preparation of drug for inhibiting corneal neovascularization (CNV)” (Institute of Ophthalmology Affiliated to Shandong First …, priority 2022, dated 2024).

The test system of this data set is cancer cell lines such as triple-negative breast cancer (TNBC), lung adenocarcinoma, chondrosarcoma, and lymphoma cell lines.

For `O=C(Cc1cccc(OC(F)(F)F)c1)Nc1ccc(CCCCc2nnc(NC(=O)Cc3ccccn3)s2)nn1` [CB-839], the antiproliferative activity result is given as “significant antiproliferative activity”.
